Data as given in patent publication US12157746B2, “Tetrahydro-1H-pyrazino[2,1-a]isoindolylquinoline compounds for the treatment of autoimmune disease” (F. HOFFMANN-LA ROCHE AG, priority 2018, dated 2024).

Biological target: T1, human TLR8 (Homo sapiens, UniProt Q9NR97)
T1 sequence (Q9NR97 27-1041): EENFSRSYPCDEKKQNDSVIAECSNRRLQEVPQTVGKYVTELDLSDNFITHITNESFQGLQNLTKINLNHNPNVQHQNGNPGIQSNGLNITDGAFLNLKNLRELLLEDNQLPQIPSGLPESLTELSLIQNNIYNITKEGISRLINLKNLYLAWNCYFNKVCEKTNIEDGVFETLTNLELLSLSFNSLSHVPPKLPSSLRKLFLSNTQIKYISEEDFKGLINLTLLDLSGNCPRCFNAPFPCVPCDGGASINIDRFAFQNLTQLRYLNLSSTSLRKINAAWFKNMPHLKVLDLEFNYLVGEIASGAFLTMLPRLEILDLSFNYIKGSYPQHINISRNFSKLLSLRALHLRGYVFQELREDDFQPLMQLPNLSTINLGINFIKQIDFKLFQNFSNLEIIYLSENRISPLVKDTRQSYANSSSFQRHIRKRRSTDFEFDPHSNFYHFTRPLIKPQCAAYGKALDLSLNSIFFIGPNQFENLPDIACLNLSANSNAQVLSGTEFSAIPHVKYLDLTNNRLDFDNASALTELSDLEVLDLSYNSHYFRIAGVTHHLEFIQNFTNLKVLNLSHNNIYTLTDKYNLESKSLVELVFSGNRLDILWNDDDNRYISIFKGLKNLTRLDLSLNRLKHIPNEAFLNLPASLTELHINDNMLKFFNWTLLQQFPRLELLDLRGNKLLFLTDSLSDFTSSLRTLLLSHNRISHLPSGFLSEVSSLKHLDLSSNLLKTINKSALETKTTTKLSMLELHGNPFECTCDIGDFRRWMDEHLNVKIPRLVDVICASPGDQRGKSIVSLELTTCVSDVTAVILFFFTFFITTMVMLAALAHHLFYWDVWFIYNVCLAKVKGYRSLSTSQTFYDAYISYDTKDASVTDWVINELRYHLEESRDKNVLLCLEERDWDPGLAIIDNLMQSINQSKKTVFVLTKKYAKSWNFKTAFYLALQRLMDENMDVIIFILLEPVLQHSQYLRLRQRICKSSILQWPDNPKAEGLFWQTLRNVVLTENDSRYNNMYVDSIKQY
Test: HEK293-Blue-hTLR-8 cells assay
Format: cell-based
Settings: HEK293-Blue-hTLR8 cells, R848 stimulation, 20 hrs, SEAP reporter; read-out: HEK/hTLR8 IC50
Method in brief: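 Antagonism read out in HEK293-Blue-hTLR8 cells carrying an NF-κB/AP-1-driven SEAP reporter, stimulated with R848 (10 μL of 60 uM stock added) alongside serially diluted compound (1% DMSO), 20 h at 37° C. Supernatant SEAP measured with QUANTI-Blue after 2 h at 37° C, absorbance at 620-655 nm.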

Row | SMILES | IC50
1 | CO[C@H]1CNC[C@@H]1Nc1ccc2c(c1)CN1[C@H](C)CN(c3ccc(C#N)c4ncccc34)C[C@H]21 [Example 62, 5-[(4R,10bS)-8-[[(3S,4S)-4-methoxypyrrolidin-3-yl]amino]-4-methyl-3,4,6,10b-tetrahydro-1H-pyrazino[2,1-a]isoindol-2-yl]quinoline-8-carbonitrile] | < 3.2 nM
2 | C[C@@H]1CN(c2ccc(C#N)c3ncccc23)C[C@@H]2c3ccc(NC[C@@H]4C[C@H](F)CN4)cc3CN12 [Example 70, 5-[(4R,10bS)-8-[[(2S,4S)-4-fluoropyrrolidin-2-yl]methylamino]-4-methyl-3,4,6,10b-tetrahydro-1H-pyrazino[2,1-a]isoindol-2-yl]quinoline-8-carbonitrile] | 0.5 nM
3 | C[C@@H]1CN(c2ccc(C#N)c3ncccc23)C[C@@H]2c3cccc(NCCN4CC[C@H](O)C4)c3CN12 [Example 80, 5-[(4R,10bS)-7-[2-[(3S)-3-hydroxypyrrolidin-1-yl]ethylamino]-4-methyl-3,4,6,10b-tetrahydro-1H-pyrazino[2,1-a]isoindol-2-yl]quinoline-8-carbonitrile] | < 3.2 nM
4 | C[C@@H]1CN(c2ccc(C#N)c3ncsc23)C[C@@H]2c3ccc(N[C@H]4CNC[C@H]4F)cc3CN12 [Example 78, 7-[(4R,10bS)-8-[[(3S,4R)-4-fluoropyrrolidin-3-yl]amino]-4-methyl-3,4,6,10b-tetrahydro-1H-pyrazino[2,1-a]isoindol-2-yl]-1,3-benzothiazole-4-carbonitrile] | 0.4 nM
5 | C[C@@H]1CN(c2ccc(C#N)c3ncccc23)C[C@@H]2c3ccc(OC[C@@H]4C[C@H](F)CN4)cc3CN12 [Example 74, 5-[(4R,10bS)-8-[[(2S,4S)-4-fluoropyrrolidin-2-yl]methoxy]-4-methyl-3,4,6,10b-tetrahydro-1H-pyrazino[2,1-a]isoindol-2-yl]quinoline-8-carbonitrile] | < 0.3 nM
6 | C[C@@H]1CN(c2ccc(C#N)c3ncccc23)C[C@@H]2c3ccc(NCC4COCCN4)cc3CN12 (stereo partly drawn) [Example 57, 5-[(4R,10bS)-4-methyl-8-(morpholin-3-ylmethylamino)-3,4,6,10b-tetrahydro-1H-pyrazino[2,1-a]isoindol-2-yl]quinoline-8-carbonitrile] | < 3.2 nM
7 | C[C@@H]1CN(c2ccc(C#N)c3ncccc23)C[C@@H]2c3ccc(N[C@H]4CNCCOC4)cc3CN12 [Example 56B, 5-[(4R,10bS)-4-methyl-8-[[(6S)-1,4-oxazepan-6-yl]amino]-3,4,6,10b-tetrahydro-1H-pyrazino[2,1-a]isoindol-2-yl]quinoline-8-carbonitrile] | < 3.2 nM
8 | CO[C@@H]1CNC[C@H]1Nc1cc2c(cc1C)[C@H]1CN(c3ccc(C#N)c4ncccc34)C[C@@H](C)N1C2 [Example 63, 5-[(4R,10bS)-8-[[(3R,4R)-4-methoxypyrrolidin-3-yl]amino]-4,9-dimethyl-3,4,6,10b-tetrahydro-1H-pyrazino[2,1-a]isoindol-2-yl]quinoline-8-carbonitrile] | 6.2 nM
9 | C[C@@H]1CN(c2ccc(C#N)c3ncccc23)C[C@@H]2c3cc(F)c(N4CC5(CNC5)C4)cc3CN12 [Example 84, 5-[(4R,10bS)-8-(2,6-diazaspiro[3.3]heptan-2-yl)-9-fluoro-4-methyl-3,4,6,10b-tetrahydro-1H-pyrazino[2,1-a]isoindol-2-yl]quinoline-8-carbonitrile] | 1.3 nM
10 | C[C@@H]1CN(c2ccc(C#N)c3ncccc23)C[C@@H]2c3ccc(N[C@@H]4CNCCOC4)cc3CN12 [Example 56A, 5-[(4R,10bS)-4-methyl-8-[[(6R)-1,4-oxazepan-6-yl]amino]-3,4,6,10b-tetrahydro-1H-pyrazino[2,1-a]isoindol-2-yl]quinoline-8-carbonitrile] | < 3.2 nM
11 | C[C@@H]1CN(c2ccc(C#N)c3ncccc23)C[C@@H]2c3ccc(N4C[C@@H]5CNCCN5C4=O)cc3CN12 [Example 71, 5-[(4R,10bS)-8-[(8aS)-3-oxo-1,5,6,7,8,8a-hexahydroimidazo[1,5-a]pyrazin-2-yl]-4-methyl-3,4,6,10b-tetrahydro-1H-pyrazino[2,1-a]isoindol-2-yl]quinoline-8-carbonitrile] | < 3.2 nM

The next lines start with the values.

Row | IC50 | SMILES
12 | < 3.2 nM | C[C@@H]1CN(c2ccc(C#N)c3ncccc23)C[C@@H]2c3ccc(NC[C@@H]4CNCCO4)cc3CN12 [Example 58, 5-[(4R,10bS)-4-methyl-8-[[(2S)-morpholin-2-yl]methylamino]-3,4,6,10b-tetrahydro-1H-pyrazino[2,1-a]isoindol-2-yl]quinoline-8-carbonitrile]
13 | < 3.2 nM | CO[C@H]1CNCC[C@H]1Nc1ccc2c(c1)CN1[C@H](C)CN(c3ccc(C#N)c4ncccc34)C[C@H]21 [Example 66, 5-[(4R,10bS)-8-[[(3S,4R)-3-methoxy-4-piperidyl]amino]-4-methyl-3,4,6,10b-tetrahydro-1H-pyrazino[2,1-a]isoindol-2-yl]quinoline-8-carbonitrile]
14 | < 3.2 nM | C[C@@H]1CN(c2ccc(C#N)c3ncccc23)C[C@@H]2c3ccc(NC[C@H]4CNCCO4)cc3CN12 [Example 59, 5-[(4R,10bS)-4-methyl-8-[[(2R)-morpholin-2-yl]methylamino]-3,4,6,10b-tetrahydro-1H-pyrazino[2,1-a]isoindol-2-yl]quinoline-8-carbonitrile]
15 | < 3.2 nM | CO[C@H]1CNC[C@@H]1N(C)c1ccc2c(c1)CN1[C@H](C)CN(c3ccc(C#N)c4ncccc34)C[C@H]21 [Example 64, 5-[(4R,10bS)-8-[[(3S,4S)-4-methoxypyrrolidin-3-yl]-methyl-amino]-4-methyl-3,4,6,10b-tetrahydro-1H-pyrazino[2,1-a]isoindol-2-yl]quinoline-8-carbonitrile]
16 | < 3.2 nM | C[C@@H]1CN(c2ccc(C#N)c3ncccc23)C[C@@H]2c3ccc(N4C[C@H]5CNCCN5C4=O)cc3CN12 [Example 72, 5-[(4R,10bS)-8-[(8aR)-3-oxo-1,5,6,7,8,8a-hexahydroimidazo[1,5-a]pyrazin-2-yl]-4-methyl-3,4,6,10b-tetrahydro-1H-pyrazino[2,1-a]isoindol-2-yl]quinoline-8-carbonitrile]
17 | 1 nM | C[C@@H]1CN(c2ccc(C#N)c3ncccc23)C[C@@H]2c3cc(F)c(N4C[C@H](N)[C@@](C)(O)C4)cc3CN12 [Example 83, 5-[(4R,10bS)-8-[(3S,4S)-4-amino-3-hydroxy-3-methyl-pyrrolidin-1-yl]-9-fluoro-4-methyl-3,4,6,10b-tetrahydro-1H-pyrazino[2,1-a]isoindol-2-yl]quinoline-8-carbonitrile]
18 | < 0.3 nM | [2H]c1ccc2c(N3C[C@@H](C)N4Cc5cc(N6CC7(CNCCO7)C6)ccc5[C@H]4C3)ccc(C#N)c2n1 [Example 90, 5-[(4R,10bS)-4-methyl-8-(5-oxa-2,8-diazaspiro[3.5]nonan-2-yl)-3,4,6,10b-tetrahydro-1H-pyrazino[2,1-a]isoindol-2-yl]-2-deuterio-quinoline-8-carbonitrile]
19 | 12.7 nM | Cc1ccc(N2C[C@@H](C)N3Cc4cc(N[C@H]5CNC[C@H]5F)ccc4[C@H]3C2)c2nccnc12 [Example 76, (4R,10bS)—N-[(3S,4R)-4-fluoropyrrolidin-3-yl]-4-methyl-2-(8-methylquinoxalin-5-yl)-3,4,6,10b-tetrahydro-1H-pyrazino[2,1-a]isoindol-8-amine]
20 | < 3.2 nM | C[C@@H]1CN(c2ccc(C(F)(F)F)c3nccnc23)C[C@@H]2c3ccc(N[C@H]4CNC[C@H]4F)cc3CN12 [Example 77, (4R,10bS)—N-[(3S,4R)-4-fluoropyrrolidin-3-yl]-4-methyl-2-[8-(trifluoromethyl)quinoxalin-5-yl]-3,4,6,10b-tetrahydro-1H-pyrazino[2,1-a]isoindol-8-amine]
21 | < 3.2 nM | C[C@@H]1CN(c2ccc(C#N)c3ncccc23)C[C@@H]2c3cccc(N[C@H]4CNC[C@H]4F)c3CN12 [Example 81, 5-[(4R,10bS)-7-[[(3S,4R)-4-fluoropyrrolidin-3-yl]amino]-4-methyl-3,4,6,10b-tetrahydro-1H-pyrazino[2,1-a]isoindol-2-yl]quinoline-8-carbonitrile]

Test system: not listed separately
Test: Human microsomal stability assay
Format: in vitro ADME
Settings: human liver microsomes 0.5 mg/mL, 37° C., pH 7.4, NADPH regenerating system, 0-30 minutes
Method in brief: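 Human liver microsomes (0.5 mg/mL) with […] compound in 100 mM potassium phosphate, pH 7.4, 37° C; reaction started with NADPH regenerating system after 10 min preincubation. Parent remaining at 0–30 min quantified by LC-MS/MS; clearance binned low (<7.0), medium (7.0-16.2) or high (16.2-23.2) mL/min/kg.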

Row | CL (h) | SMILES
22 | 7.5 mL/min/kg | CO[C@H]1CNC[C@@H]1Nc1ccc2c(c1)CN1[C@H](C)CN(c3ccc(C#N)c4ncccc34)C[C@H]21 [Example 62, 5-[(4R,10bS)-8-[[(3S,4S)-4-methoxypyrrolidin-3-yl]amino]-4-methyl-3,4,6,10b-tetrahydro-1H-pyrazino[2,1-a]isoindol-2-yl]quinoline-8-carbonitrile]
